Laboratory results taken from US20050043273A1, “Compositions and methods for inhibiting slit protein and glypican interactions” (priority 2003, published 2005).

Assays:
[1] = system: glypican-1-Fc binding to human full-length Slit-2; experiment: ELISA: inhibition of glypican-1-Fc binding to Slit-2
Experimental: Human embryonic kidney 293 cells were transfected with a glypican-1-Fc fusion protein construct using Lipofectamine 2000 and grown in serum-free DMEM containing 1% ITS+. To separate the glycanated form of the proteoglycan (which was used for all studies) from unglycanated core protein, the conditioned medium was applied to a 0.9×8 cm column of DEAE-Sephacel equilibrated with 150 mM NaCl, 50 mM Tris-HCl, pH 8.0. After elution with 50 mM Tris-HCl (pH 8.0) containing 0.6 M NaCl, the glycanated glypican-1-Fc was bound to protein A-Sepharose beads, eluted with 0.1 M glycine, pH 3.0, and immediately neutralized with 1 M Tris, pH 8.0, for storage at −80° C.
293 cells were transfected with the pSecTagB vector (Invitrogen, Carlsbad, Calif.) containing cDNA for the His-tagged uncleavable variant of human full-length Slit-2, in which the nine amino acids encompassing the proteolytic processing site were deleted, producing an uncleavable full-length protein. 1 M NaCl extracts of the 293 cells were incubated with nickel-agarose beads (Qiagen) for 2 hours at 4° C., and after washing, bound protein was eluted with 10 mM Hepes (pH 7.5) containing 250 mM imidazole and 1 M NaCl. Protein concentrations were determined by the Bradford assay. Purity of the recombinant Slit protein was confirmed by SDS-PAGE followed by silver staining.
96-well plates (Corning Costar #9018) were coated overnight with the human full-length Slit-2 in imadazole/NaCl elution buffer at a saturating concentration of 1-5 μg/well, after dilution in PBS. Unbound protein was removed by washing with TBST (10 mM Tris-HCl, pH 7.4, 150 mM NaCl, 0.1% Tween 20), the wells were blocked with 10% FBS in TBST for 2 hours, and then incubated for 18 hours at room temperature with glypican-1-Fc (1 μg/well) in 5 mM PBS (pH 7.2), or in PBS containing varying concentrations of potential inhibitory compositions. Bound glypican was detected using a biotinylated anti-human Fc antibody (Jackson Immunoresearch; 1:250,000 in TBST, for 2 hours), followed by incubation for 20 minutes with HRP-conjugated streptavidin (1:20,000 in TBST). The colorimetric reaction product from the o-phenylenediamine substrate was measured at 450 nm using a Dynatech MRX ELISA plate reader. Nonspecific binding was calculated as the binding of glypican-1-Fc to wells coated with BSA (2 mg/ml solution). Percent inhibition was calculated in relation to parallel assay wells in which no inhibitor was added to the glypican-1 solution. From serial dilutions of a known concentration of glypican-1-Fc directly coated on the wells and the corresponding immunoreactivity absorbance, a standard curve could also be created and used to quantitate the absolute amount of glypican-1-Fc bound.
The glypican-1-Fc and human Slit-2 fusion proteins are prepared as set forth in Example One.

[2] = system: whole blood; details: cited from earlier work
[3] = system: vascular endothelial cells; details: cited from earlier work

For `CO[C@H]1O[C@H](COS(=O)(=O)O)[C@@H](O[C@@H]2O[C@@H](C(=O)O)[C@@H](O[C@H]3O[C@H](COS(=O)(=O)O)[C@@H](O[C@@H]4O[C@H](C(=O)O)[C@@H](O[C@H]5O[C@H](COS(=O)(=O)O)[C@@H](O)[C@H](O)[C@H]5NS(=O)(=O)O)[C@H](O)[C@H]4O)[C@H](OS(=O)(=O)O)[C@H]3NS(=O)(=O)O)[C@H](O)[C@H]2OS(=O)(=O)O)[C@H](O)[C@H]1NS(=O)(=O)O` [Arixtra], the “% inhibition of glypican-1 binding to Slit” value (“% inhibition” for short) ([1]; 50 μM) was “no effect”.

For `O=S(=O)(O)c1cc2c(O)c(c1)Cc1cc(S(=O)(=O)O)cc(c1O)Cc1cc(S(=O)(=O)O)cc(c1O)Cc1cc(S(=O)(=O)O)cc(c1O)Cc1cc(S(=O)(=O)O)cc(c1O)Cc1cc(S(=O)(=O)O)cc(c1O)Cc1cc(S(=O)(=O)O)cc(c1O)Cc1cc(S(=O)(=O)O)cc(c1O)C2` [GL-522-Y-1], the anticoagulant activity [2] is listed as “no significant anticoagulant activity”, the antithrombotic activity [3] is listed as “heparin-like antithrombotic activity” and the “% inhibition” value ([1]; 1 μM) is listed as 58%. The “% inhibition” value ([1]; 5 μM) was 61% and the “% inhibition” value ([1]; 50 μM) was 67%.

In the case of `Cc1ccc(C(=O)Nc2ccc(S(=O)(=O)O)c3cc(S(=O)(=O)O)cc(S(=O)(=O)O)c23)cc1NC(=O)c1cccc(NC(=O)Nc2cccc(C(=O)Nc3cc(C(=O)Nc4ccc(S(=O)(=O)O)c5cc(S(=O)(=O)O)cc(S(=O)(=O)O)c45)ccc3C)c2)c1` [suramin], the “inhibition of glypican binding to Slit proteins (in words)” value ([1]; ELISA, function of oligosaccharide size, FIG. 1) is reported as “inhibits glypican-Slit interactions to the same extent as large heparin oligosaccharides”.
